Laboratory results reported in patent publication US11535856B2, “Stilbenoid prenyltransferases from plants” (Arkansas State University—Jonesboro, priority 2016, dated 2022).

Key:
[1] = molecular target: human cannabinoid receptors 2 (hCBR2s) (Homo sapiens, UniProt P34972); conditions: cited from earlier work
rotavirus = conditions: HT29.f8 cells; cited from earlier work
[2] = Lipophilicity from retention in reverse-phase HPLC; conditions: later retention time in reverse-phase HPLC
[3] = tested on: SK-MEL, KB, BT-549, and SK-OV-3; conditions: BT-549, SK-OV-3; cited from earlier work
leukemia HL-60 cells = conditions: cited from earlier work
macrophages = conditions: cited from earlier work
[4] = tested on: intracellular reactive oxygen species; conditions: cited from earlier work
[5] = in vivo; cited from earlier work
[6] = tested on: resveratrol prenyltransferase AhR4DT; experiment: Prenyltransferase assay with microsomal fraction of elicited peanut hairy roots; assay type: biochemical, Arachis hypogaea; conditions: microsomal fraction of peanut hairy roots, 28° C., 60 min; read-out: apparent km
AhR3′DT-1 = AhR3′DT-1 (Arachis hypogaea, UniProt A0A2H4GDD0); experiment: AhR3′DT-1 activity in microsomal fraction of N. benthamiana leaves; conditions: N. benthamiana leaves
[7] = substrate: Oc1ccc(/C=C/c2cc(O)cc(O)c2)cc1; experiment: cells, lysate or membranes named; conditions: other: microsomal fraction of N. benthamiana leaves, pH 9.0, 28° C.
[8] = substrate: Oc1cc(O)cc(/C=C/c2ccc(O)c(O)c2)c1; experiment: cells, lysate or membranes named
[9] = substrate: CC(C)=CCOP(=O)(O)OP(=O)(O)O; experiment: cells, lysate or membranes named; conditions: other: microsomal fraction of N. benthamiana leaves, pH 9.0, 28° C.
resveratrol prenylation = experiment: Screening for stilbenoid prenylation activity, crude extract of infiltrated N. benthamiana leaves; assay type: biochemical, Arachis hypogaea; conditions: resveratrol and DMAPP as substrates
Description: The engineered A. tumefaciens was grown in 5 mL of YEP medium, containing 50 mg/L of kanamycin (Sigma-Aldrich) and 30 mg/L of streptomycin (Sigma-Aldrich) for antibiotic selection, at 28° C. on an orbital shaker at 200 rpm. After cultivation for 2 days, 5 mL of bacterial suspension was inoculated into 50 mL of fresh YEP medium containing the antibiotics and allowed to grow for one additional day under the same conditions. Bacteria were pelleted by centrifugation, resuspended in 500 mL of induction medium containing 10 mM MgCl2 with 1 mM acetosyringone and incubated for 4 h at 28° C. under 200 rpm orbital shaking until their OD600 reached to a range from 0.5 to 0.6. Before the infiltration, 0.005% of Tween-20, 0.005% of Triton 100 and 0.005% of Silwet L-77 were added to bacterial cultures to enhance the efficiency of transformation in N. benthamiana leaves. Agrobacterium-mediated vacuum infiltration was performed on 4-week-old N. benthamiana following the methodology described previously (Medrano et al., 2009).
After 48 hours of post-infiltration, the “middle tier” of N. benthamiana leaves were harvested for prenylation activity screening. Five grams of leaf tissue (fresh weight) were grounded and homogenized using a mortar with pestle in 10 mL of extraction buffer containing 100 mM Tris-HCl (pH 7.6) and 10 mM dithiothreitol (DTT). […] The total protein concentration was determined by coomassie protein assay (Thermo Scientific) using bovine serum albumin as standard.
The reaction of crude cell-free extract of N. benthamiana leaves infiltrated with A. tumefaciens harboring the empty pBIB-Kan vector was used as control.

AhR4DT-1 = AhR4DT-1 (Arachis hypogaea, UniProt A0A2H4GDC8); experiment: AhR4DT-1 activity in microsomal fraction of N. benthamiana leaves; conditions: N. benthamiana leaves

Sequence of human cannabinoid receptors 2 (hCBR2s) (P34972 whole entry): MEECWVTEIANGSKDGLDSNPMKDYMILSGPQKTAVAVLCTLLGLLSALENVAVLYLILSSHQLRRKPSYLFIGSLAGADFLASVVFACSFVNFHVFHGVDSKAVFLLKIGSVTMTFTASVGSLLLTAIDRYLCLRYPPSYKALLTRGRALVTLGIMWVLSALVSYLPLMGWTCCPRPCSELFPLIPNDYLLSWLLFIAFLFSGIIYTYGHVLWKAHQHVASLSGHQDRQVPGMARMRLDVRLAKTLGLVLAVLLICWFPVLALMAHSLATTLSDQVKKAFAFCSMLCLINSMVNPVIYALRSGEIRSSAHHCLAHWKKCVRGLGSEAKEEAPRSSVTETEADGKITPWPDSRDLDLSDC

Molecule	binding to hCBR2s [1]	replication of rotavirus (rotavirus)	inhibiting inducible nitric oxide production (macrophages)	inhibiting production of intracellular reactive oxygen species [4]	Km [7] [µM]	Km [9] [µM]	other results
CC(C)/C=C/c1c(O)cc(/C=C/c2ccc(O)c(O)c2)cc1O [arachidin-1]	shown to bind	inhibiting the replication of rotavirus	more effective than resveratrol	–	–	–	lipophilicity compared with 3,3-dimethylallyl analogs [2]: higher lipophilicity; cytotoxicity [3]: higher cytotoxicity than resveratrol; cytotoxicity (leukemia HL-60 cells): higher cytotoxicity than resveratrol
CC(C)/C=C/c1c(O)cc(/C=C/c2ccc(O)cc2)cc1O [arachidin-3]	shown to bind	inhibiting the replication of rotavirus	more effective than resveratrol	greater potency over resveratrol	–	–	–
Oc1ccc(/C=C/c2cc(O)cc(O)c2)cc1 [resveratrol, 3,5,4′-trihydroxy-trans-stilbene]	–	–	–	–	–	–	oral bioavailability [5]: limited oral bioavailability; Km [6]: 111 ± 40.4 µM
CC(C)=CCc1c(O)cc(/C=C/c2ccc(O)cc2)cc1O [arachidin-2]	–	–	more effective than resveratrol	greater potency over resveratrol	–	–	–
AhR3′DT-1 (Arachis hypogaea) (protein) MAFGVVAASFSRAPSIVTTRGCYVTRASLPNKSLKFSKEYNLKTSLQHNWKHNSRSIFERGSTITTCDKYDEKKYLMNVTQSHEAEPHSQSILKSIIDALDAFRKFSRFYAFIAMVVGSLSTSLLAVDNLTELYPAFFNGFLQCMAAYFFMHLYIVGINQLADLEIDKINKPYLPLASGNYSFRTAVITVTSFLFTGFGIAWIIGSKPLLWTIFASFVLMTAYSVNLPLLRWKKSTILTVMGNTLSMVISFNLGPFYHMKTHVLKKAATFPRSLLFAVVVMSMYYIVIALTKDIPDIEGDKEAGLQTLAIRLGPKTVFWSSVALLEMAYGAAIIIGASSPFLWSKISVVLSHAILALFVWYRSTLVDLSNKDSLQAFYMLIFKLFSVENILMLFVR	–	–	–	–	17.67 ± 1.601	691.4 ± 48.46	specific activity, microsomal fraction vs crude cell-free extracts (AhR3′DT-1): 13.9 fold; Km ([8]; pH 9.0, 28.0 °C): 50.3 ± 5.509 µM; resveratrol prenyltransferase activity (resveratrol prenylation): highest activity
AhR4DT-1 (Arachis hypogaea) (protein) MAFGHLVLIPRSTSSIATTAASCWKSKKFADNYYANSYGRRALWQSDRNLTKDHSIKTSLQHNISKLHYNPIERGSRCNKIEKTYLTNASSSAQSHESEPEVHESPKALESIKKGLVMFLQFCRLYAFLGMIPAGLSSSLLAVDNFSEISPLLFLKGVLQYIVTFFFTSQFVMGVNQLSDVEIDKINKPDLPLASGEYSFTSGVILVTSFLLAGFGVAWMLGSQPLIWSVVVTAALMGAYSVNFPLLRWKRSIILTSLSNAIAMLASFHIGPFLHMKTFVLKKAATFPRSMILGCVVIGLFYTIITLTKDLGDVEGDKAAGLKTLPIRLGVKPVFWLCVSLIQMAYGIAITMGALSPVLWSKIVTVVAHAFMVFYVWNHALNSVDLSSKDSLHSFHLFMFKLVTVEGILIQFVR	–	–	–	–	99.52 ± 15.11	153.7 ± 27.28	Km ([8]; other: microsomal fraction of N. benthamiana leaves, pH 9.0, 28° C.): 311.4 ± 54.83 µM; specific activity, microsomal fraction vs crude cell-free extracts (AhR4DT-1): 8.9 fold
